Reference: PubChem BioAssay (NCI)
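Exposure lasted 48 hours, with cells grown in 96-well plates and compounds tested at five concentrations. Definition used: TGI = concentration required for complete inhibition of growth.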

Columns and labels:
Test in all cases: NCI tumour cell line growth inhibition, 48 h
TK-10 renal = test system: TK-10 renal
SNB-19 CNS = test system: SNB-19 CNS
IGROV1 ovarian = test system: IGROV1 ovarian
SK-MEL-28 melanoma = test system: SK-MEL-28 melanoma
SK-MEL-5 melanoma = test system: SK-MEL-5 melanoma
SW-620 colon = test system: SW-620 colon
EKVX NSCLC = test system: EKVX NSCLC
NCI-H460 lung = test system: NCI-H460 lung
SN12C renal = test system: SN12C renal
UACC-257 melanoma = test system: UACC-257 melanoma
OVCAR-8 ovarian = test system: OVCAR-8 ovarian
SF-295 CNS = test system: SF-295 CNS
NCI-H226 lung = test system: NCI-H226 lung
OVCAR-4 ovarian = test system: OVCAR-4 ovarian
OVCAR-3 ovarian = test system: OVCAR-3 ovarian
T-47D breast = test system: T-47D breast
MDA-MB-435 = test system: MDA-MB-435
DU-145 prostate = test system: DU-145 prostate

Compound	TGI (TK-10 renal)	TGI (SNB-19 CNS)	TGI (IGROV1 ovarian)	TGI (SK-MEL-28 melanoma)	TGI (SK-MEL-5 melanoma)	TGI (SW-620 colon)	TGI (EKVX NSCLC)	TGI (NCI-H460 lung)	TGI (SN12C renal)	TGI (UACC-257 melanoma)	TGI (OVCAR-8 ovarian)	TGI (SF-295 CNS)	TGI (NCI-H226 lung)	TGI (OVCAR-4 ovarian)	TGI (OVCAR-3 ovarian)	TGI (T-47D breast)	TGI (MDA-MB-435)	TGI (DU-145 prostate)
COC1=CC(=O)c2c(cc3c(c2O)-c2c(OC)cc4cc5c(c(O)c4c2OC(=O)CC(C)(O)C3)C(=O)CC(C)(O)C5)C1=O (stereo unspecified)	14.2 µM	4.13 µM	3.97 µM	4.36 µM	0.606 µM	6.3 µM	5.58 µM	5.24 µM	3.27 µM	5.34 µM	6.49 µM	3.48 µM	4.08 µM	10.3 µM	2.15 µM			
CN1c2ccccc2C(=O)NC12CCNCC2	> 100 µM	> 100 µM	> 100 µM	> 100 µM	> 100 µM	> 100 µM	> 100 µM	> 100 µM		> 100 µM	> 100 µM	> 100 µM	> 100 µM	> 100 µM		> 100 µM	> 100 µM	> 100 µM
CCCCCC#COC1CC(C)CC[C@@H]1C(C)C (stereo partly specified)	> 100 µM	> 100 µM	79.5 µM	> 100 µM	> 100 µM	34.1 µM	> 100 µM	55.4 µM	> 100 µM	> 100 µM	> 100 µM	> 100 µM	> 100 µM	> 100 µM	> 100 µM			
Cc1cccc2c1c(=O)c1c(O)cc3c(c1n2C)C=CC(C)(C)O3	> 100 µM	> 100 µM	> 100 µM	> 100 µM	> 100 µM	> 100 µM	> 100 µM	> 100 µM	> 100 µM	> 100 µM	> 100 µM	> 100 µM	> 100 µM	> 100 µM	> 100 µM		> 100 µM	> 100 µM
COC(=O)[C@H](COC(C)(C)C)NC(=O)N[C@H](C)c1ccccc1	> 100 µM	> 100 µM	> 100 µM	> 100 µM	> 100 µM	> 100 µM	> 100 µM	> 100 µM	> 100 µM	> 100 µM	> 100 µM	> 100 µM	> 100 µM	> 100 µM	> 100 µM		> 100 µM	> 100 µM
CC(=O)Oc1ccc(Nn2c3ccccc3c3ccccc32)c(C)c1	> 100 µM	> 100 µM	94.2 µM	> 100 µM	> 100 µM	79.9 µM		> 100 µM	> 100 µM	> 100 µM	78.6 µM	73.7 µM			> 100 µM			
C/C1=C/C[C@@H](/C(C)=C/c2csc(C)n2)OC(=O)C[C@H](O)C(C)(C)C(=O)[C@H](C)[C@@H](O)[C@@H](C)CCC1	0.4 µM	0.189 µM	0.215 µM		0.167 µM	0.24 µM	0.215 µM	0.23 µM	0.209 µM		0.295 µM	< 0.0001 µM	0.214 µM	0.472 µM	0.173 µM	0.361 µM		< 0.0001 µM
C=CC(=O)NCNC(=O)C=C	> 100 µM	> 100 µM	> 100 µM	> 100 µM	> 100 µM	> 100 µM	> 100 µM	> 100 µM	> 100 µM	> 100 µM	> 100 µM	> 100 µM	> 100 µM	> 100 µM	> 100 µM			
Oc1c(Cl)c(Cl)c(O)c(CCNc2nccs2)c1Cl	33 µM	44.1 µM	17.9 µM	67.9 µM	8.71 µM	7.72 µM	41.1 µM	41.1 µM	49.2 µM	58.7 µM	47.2 µM	41.5 µM		> 100 µM	33.3 µM	34.8 µM	41.8 µM	19.8 µM
O=P(CCOc1ccccc1OCCP(=O)(c1ccccc1)c1ccc2c(c1)OCCOCCOCCOCCO2)(c1ccccc1)c1ccc2c(c1)OCCOCCOCCOCCO2 (stereo unspecified)	> 100 µM	> 100 µM	> 100 µM	> 100 µM	> 100 µM	> 100 µM	> 100 µM	> 100 µM	> 100 µM	> 100 µM	> 100 µM	> 100 µM	> 100 µM	> 100 µM	> 100 µM			
c1ccc2cc(CNCCCCNCCCNCc3ccc4ccccc4c3)ccc2c1	3.39 µM	2.8 µM	1.69 µM	3.34 µM		0.915 µM	3.05 µM	0.338 µM	0.879 µM	3.55 µM	3.2 µM	2.96 µM	2.78 µM	3.08 µM	3.52 µM		3.1 µM	2.53 µM
CC(C)OC(=O)NNc1cccc(Cl)c1	> 100 µM	> 100 µM		> 100 µM	> 100 µM	> 100 µM	> 100 µM	> 100 µM	> 100 µM	> 100 µM	> 100 µM	> 100 µM	> 100 µM		> 100 µM	> 100 µM	> 100 µM	> 100 µM
O=C1Nc2ccccc2/C1=C\c1c(-c2ccccc2)nc2n1CCS2	34.3 µM	91 µM	> 100 µM	> 100 µM	30.2 µM	> 100 µM	52 µM	41.9 µM	58.5 µM	45.9 µM	> 100 µM	48.6 µM		> 100 µM	41.8 µM	76.8 µM	39.8 µM	40.7 µM
O=C1C=CC(=O)c2cc(Sc3ccccc3)c(=O)c(Sc3ccccc3)cc21	> 100 µM	> 100 µM	> 100 µM	> 100 µM	> 100 µM	> 100 µM	> 100 µM	> 100 µM	> 100 µM	> 100 µM	> 100 µM	> 100 µM	> 100 µM	> 100 µM	> 100 µM			
Cc1c(-c2nc(N)c(C#N)c(N)c2C#N)c(=O)oc2ccccc12	> 100 µM	> 100 µM	> 100 µM	> 100 µM	> 100 µM	> 100 µM	> 100 µM	> 100 µM	> 100 µM	> 100 µM	> 100 µM	> 100 µM	> 100 µM	> 100 µM	> 100 µM	> 100 µM		> 100 µM
O=C(CCN1CCC(CCO)CC1)Nc1ccc2c(c1)C(=O)c1ccc(NC(=O)CCN3CCC(CCO)CC3)cc1C2=O	> 100 µM	68.8 µM	> 100 µM	> 100 µM	> 100 µM	29.1 µM	> 100 µM	15.5 µM	> 100 µM	> 100 µM	61.6 µM	> 100 µM	76.5 µM	63.2 µM	24.7 µM			
COC(=O)CC(CNC(=O)OCc1ccccc1)OCc1ccc(OC)cc1 (stereo unspecified)	> 100 µM	> 100 µM	> 100 µM	> 100 µM	> 100 µM	> 100 µM	> 100 µM	> 100 µM	> 100 µM	> 100 µM	> 100 µM	> 100 µM	> 100 µM	> 100 µM	> 100 µM		> 100 µM	> 100 µM
Cc1ccc(C(=O)N2CCCCC2)cc1N=NN(C)C	> 100 µM	> 100 µM	> 100 µM	> 100 µM	> 100 µM	> 100 µM	> 100 µM	> 100 µM	> 100 µM	> 100 µM	> 100 µM	> 100 µM	> 100 µM	> 100 µM	> 100 µM			
CCCCOC(=O)NC(Nc1ccc(S(=O)(=O)Nc2ncccn2)cc1)(C(F)(F)F)C(F)(F)F	> 100 µM	> 100 µM	> 100 µM	> 100 µM	> 100 µM	> 100 µM	> 100 µM	> 100 µM	> 100 µM		> 100 µM	> 100 µM	> 100 µM	> 100 µM	> 100 µM	> 100 µM	> 100 µM	> 100 µM
O=C1CC(C(OCc2ccccc2)C(OCc2ccccc2)C(OCc2ccccc2)C(COCc2ccccc2)OCc2ccccc2)CC(=O)N1 (stereo unspecified)	> 100 µM	> 100 µM	> 100 µM	> 100 µM	> 100 µM	> 100 µM	> 100 µM	> 100 µM	> 100 µM	> 100 µM	> 100 µM	> 100 µM		> 100 µM	> 100 µM		> 100 µM	> 100 µM
O=C(Oc1c(Br)cc(Br)cc1C(=O)Oc1ccccc1)C(=O)Oc1c(Br)cc(Br)cc1C(=O)Oc1ccccc1	> 100 µM	64.8 µM	> 100 µM	> 100 µM	31 µM	51.1 µM	> 100 µM	> 100 µM	97.4 µM	> 100 µM	> 100 µM	> 100 µM	46 µM		66.2 µM	75 µM	> 100 µM	> 100 µM
Cc1ccc(SCC(CF)OC(C)n2cnc3c(Cl)nc(N)nc32)cc1 (stereo unspecified)	> 100 µM	> 100 µM	> 100 µM	> 100 µM	53.7 µM	> 100 µM		> 100 µM	> 100 µM	> 100 µM	> 100 µM	> 100 µM	> 100 µM	52.6 µM	> 100 µM	> 100 µM	> 100 µM	> 100 µM
COC(=O)[C@@H](OC(C)=O)[C@@H](OC(C)=O)c1nnc2ccc(Cl)nn12	> 100 µM	> 100 µM	> 100 µM	> 100 µM	> 100 µM	> 100 µM	> 100 µM	> 100 µM	> 100 µM	> 100 µM	> 100 µM	> 100 µM		> 100 µM	> 100 µM	> 100 µM	> 100 µM	> 100 µM
CC1CCC2CC1NC(=O)CCOCCC(=O)NC2(C)C (stereo unspecified)	> 100 µM	> 100 µM	> 100 µM	> 100 µM	> 100 µM	> 100 µM	> 100 µM	> 100 µM	> 100 µM	> 100 µM	> 100 µM	> 100 µM		> 100 µM	> 100 µM	> 100 µM	> 100 µM	> 100 µM
CC(CNC(=O)c1ccccc1)(CNC(=O)c1ccccc1)[N+](=O)[O-]	> 100 µM	73.3 µM	> 100 µM		> 100 µM	> 100 µM	> 100 µM	> 100 µM	> 100 µM	> 100 µM	> 100 µM	> 100 µM	> 100 µM			> 100 µM	> 100 µM	> 100 µM
O=c1oc2ccc3ccccc3c2cc1-c1cn2c(n1)sc1ccccc12	> 100 µM	> 100 µM	> 100 µM	> 100 µM	> 100 µM	> 100 µM	> 100 µM	> 100 µM		> 100 µM	> 100 µM	> 100 µM	> 100 µM	> 100 µM	> 100 µM		> 100 µM	> 100 µM
CN(C)CCN(C)C(=O)C1CCCN1C(=O)OCc1ccccc1 (stereo unspecified)	> 100 µM	> 100 µM	> 100 µM	> 100 µM	> 100 µM	> 100 µM	> 100 µM	> 100 µM	> 100 µM	> 100 µM	> 100 µM	> 100 µM	> 100 µM	> 100 µM	> 100 µM			
CC(C)CC(NC=O)C(=O)NC(Cc1ccccc1)NC(=O)CNC(=O)C(C)NC(=O)C(N)Cc1ccc(O)cc1 (stereo unspecified)	> 100 µM	> 100 µM	> 100 µM	> 100 µM	> 100 µM	> 100 µM	> 100 µM	> 100 µM	> 100 µM		> 100 µM	> 100 µM	> 100 µM	> 100 µM	> 100 µM	> 100 µM	> 100 µM	> 100 µM
